Here are results for two compounds from patent publication US20090069394A1, “CANCER TREATMENT WITH EPOTHILONES” (priority 2003, published 2009).

On the set-up of series [1]: species or system BALB/c nude mice. Particulars: mouse, in vivo. On the procedure:
BALB/c nude mice bearing KB-8511 xenograft tumors (initial volume of 250 mm3) were treated using various loading and maintenance dosage regimens to probe the validity of such regimens and to validate the predictions obtained with the PK-PD model. […] The kinetics of body weight loss on some of the tested loading and maintenance dosage regimens (L/MDR) were more benign (i.e. less fluctuating) than those observed on the corresponding fixed dosage regimens (FDR). […] It is concluded that the loading and maintenance dosing concept, by taking into account the very slow elimination rate of NVP-ABJ879, appears to represent an alternative dosing schemeunder which this drug can be dosed weekly.

Series [2] in a line: Tolerability (body weight) in KB-8511 tumor-bearing mice. In kind it is in vivo, BALB/c nude mice. As for the experimental part:
The experimental details of the human tumor xenograft model has been described previously. A maximum of 10 female nude mice are kept under sterile conditions (type III cage, in an OHC zone) with free access to food and water. KB-8511 tumors are established by subcutaneous injection of cells (2×10^6 cells in 100 μL PBS). The resulting tumors (at a size of 700 to 1000 mm3) are passaged in vivo at least 3 times prior to chemotherapy experimentation, and tumor-bearing mice are treated with Adriablastin/EÊ at 3 mg/kg (10 mL/kg) every week, in order to keep high levels of pgp170 expression. Tumor fragments of about 25 mg are implanted subcutaneously into the left flank of the animals with a 13 gauge trocar needle under Forene/EÊ (Abbott, Switzerland) anesthesia. Unless otherwise stated, treatments are always initiated when the mean tumor volume in each group reached 100 mm3. […] 7,11-Dihydroxy-8,8,10,12,16-pentamethyl-[1-methyl-2-(2-methylsulfanyl-thiazol-4-yl)-vinyl]-4,17-dioxa-bicyclo[14.1.0]heptadecane-5,9-dione is administered i.v. and tumor volumes and body weights are measured twice per week. Tumor volumes are determined by using callipers for measurement of longest (considered as Length) and shortest (considered as Diameter) dimensions of each tumors, and according to the formula Length×Diameter2×δ/6. Tumor growth and body weights are monitored twice weekly. […]

In series [3] the test system is Human epidermoid carcinoma KB-8511 cells. The series is described as follows: KB-8511 human tumor xenograft model, loading/maintenance dosage regimens. Format: in vivo, BALB/c nude mice. As for the experimental part:
7,11-Dihydroxy-8,8,10,12,16-pentamethyl-3-[1-methyl-2-(2-methylsulfanyl-thiazol-4-yl)-vinyl]-4,17-dioxa-bicyclo[14.1.0]heptadecane-5,9-dione is dissolved in PEG300 and immediately diluted with saline (0.9% w/v NaCl) to the desired final concentration to be administered to mice as. The injected volume is 10 ml/kg i.v. Formulations are prepared immediately before use. Adriablastin/EÊ (Pharmacia and Upjohn) is purchased as a 2 mg/mL solution, and diluted with saline (0.9% NaCl) to prepare the 0.3 mg/mL solution used to treat animals. Taxol. (Bristol-Myers Squibb AG) is purchased as a 6 mg/ml solution, and diluted with saline to prepare the 1.5 mg/ml solution used to treat animals.
Human epidermoid carcinoma KB-8511 cells are obtained from Dr R. M. Baker, Roswell, Park Memorial Institute (Buffalo, N.Y., USA). Because of pgp170 overexpression, these cells are multi-drug resistant (Akiyama, et al 1985). KB-8511 cells are cultured as previously described.
The experimental details of the human tumor xenograft model has been described previously. A maximum of 10 female nude mice are kept under sterile conditions (type III cage, in an OHC zone) with free access to food and water. […] 7,11-Dihydroxy-8,8,10,12,16-pentamethyl-[1-methyl-2-(2-methylsulfanyl-thiazol-4-yl)-vinyl]-4,17-dioxa-bicyclo[14.1.0]heptadecane-5,9-dione is administered i.v. and tumor volumes and body weights are measured twice per week. Tumor volumes are determined by using callipers for measurement of longest (considered as Length) and shortest (considered as Diameter) dimensions of each tumors, and according to the formula Length×Diameter2×δ/6. Tumor growth and body weights are monitored twice weekly. When mentioned, antitumor activity is expressed as TIC % (mean increase of tumor volumes of treated animals divided by the mean increase of tumor volumes of control animals multiplied by 100) and/or as Tumor Regression (Reg %), calculated as ((mean tumor volume at the start of treatment minus mean tumor volume)/mean tumor volume at the start of treatment)×100. […]
(Xenograft models place foreign cells or tissue in a host animal.)

The conditions of series [4]: cited from earlier work.
Series [5] deals with colorectal, renal, prostatic, pancreatic, gastric and brain cancers. The following applies: cited from earlier work.

`CSc1nc(C=C(C)C2CC3OC3(C)CCCC(C)C(O)C(C)C(=O)C(C)(C)C(O)CC(=O)O2)cs1` (centres unmarked) [7,11-Dihydroxy-8,8,10,12,16-pentamethyl-3-[1-methyl-2-(2-methylsulfanyl-thiazol-4-yl)-vinyl]-4,17-dioxa-bicyclo[14.1.0]heptadecane-5,9-dione]: the elimination rate result in series [1] is listed as “very slow”. The “tolerability (stabilization of the body weight loss)” value in series [2] (loading and maintenance 1.5 mg/kg-0.5 mg/kg or 2.1 mg/kg-0.7 mg/kg, weekly i.v.) was “enhanced tolerability”. Besides, in series [2] (some loading and maintenance dosage regimens (L/MDR) versus corresponding fixed dosage regimens (FDR)), the “kinetics of body weight loss” value is “more benign”. Moreover, in series [3] (1.5/0.5 mg/kg dosing), the tumor relapse result is reported as “tumor relapse was observed in some of the animals”. Further, the “antitumor activity where tolerability improved (dose optimization)” value in series [3] (initial tumor volume 100 mm3, tolerability assessed on body weight change) is reported as “reduced antitumor activity”. Also, the antitumor activity result in series [3] (loading and maintenance 1.5 mg/kg-0.5 mg/kg or 2.1 mg/kg-0.7 mg/kg, weekly i.v., initial tumor volume 250 mm3) is “strong antitumor activity”.

`CC(=O)O[C@H]1C(=O)[C@@]2(C)[C@H]([C@H](OC(=O)c3ccccc3)[C@]3(O)C[C@H](OC(=O)[C@H](O)[C@@H](NC(=O)c4ccccc4)c4ccccc4)C(C)=C1C3(C)C)[C@]1(OC(C)=O)CO[C@@H]1C[C@@H]2O` [TAXOL®, paclitaxel]: the solubility in water result in series [4] was “extremely low”. Also, in series [5], the “clinical activity as a single agent” value is “poorly active clinically”.
